Data: ChEMBL document CHEMBL1201862, “PubChem BioAssay data set” (2004)
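Grown in 96-well plates, cells were treated for 48 hours with each compound at five concentrations. Insufficient inhibition: endpoint recorded as highest concentration tested. At the GI50, growth is halved.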 The source made the active and inactive calls. Cut-off read from the data, not from the text of the source: active = GI50 up to about 1.1 µM and inactive = higher.

How the values were obtained:
Assay in all cases: DTP human tumour cell line panel, 48 h
MCF7 = test system: MCF7
Hs-578T = test system: Hs-578T
HCC 2998 = test system: HCC 2998
SK-MEL-2 = test system: SK-MEL-2
SNB-19 = test system: SNB-19
MOLT-4 = test system: MOLT-4
UO-31 = test system: UO-31
OVCAR-3 = test system: OVCAR-3
HCT-15 = test system: HCT-15
DU-145 = test system: DU-145
SF-539 = test system: SF-539
RXF 393 = test system: RXF 393
HCT-116 = test system: HCT-116
U-251 = test system: U-251
SF-268 = test system: SF-268
OVCAR-8 = test system: OVCAR-8
A549 = test system: A549
IGROV-1 = test system: IGROV-1
SW-620 = test system: SW-620
HOP-92 = test system: HOP-92

CC1CN=C(NCc2ccccc2)S1 (stereo not given)
GI50 (MCF7): > 100 µM (inactive) | GI50 (Hs-578T): > 100 µM (inactive) | GI50 (HCC 2998): > 100 µM (inactive) | GI50 (SK-MEL-2): > 100 µM (inactive) | GI50 (SNB-19): > 100 µM (inactive) | GI50 (MOLT-4): > 100 µM (inactive) | GI50 (UO-31): > 100 µM (inactive) | GI50 (OVCAR-3): > 100 µM (inactive) | GI50 (HCT-15): > 100 µM | GI50 (DU-145): > 100 µM (inactive) | GI50 (SF-539): > 100 µM (inactive) | GI50 (RXF 393): 4.17 µM (inactive) | GI50 (HCT-116): > 100 µM (inactive) | GI50 (U-251): > 100 µM (inactive) | GI50 (SF-268): > 100 µM (inactive)

N#CCCC1C(C#N)C2(Cl)CC1(Cl)C(Cl)=C2Cl (stereo not given)
GI50 (MCF7): > 10 µM (inactive) | GI50 (Hs-578T): > 10 µM (inactive) | GI50 (HCC 2998): > 10 µM (inactive) | GI50 (SK-MEL-2): > 10 µM (inactive) | GI50 (SNB-19): > 10 µM (inactive) | GI50 (MOLT-4): > 10 µM (inactive) | GI50 (UO-31): > 10 µM (inactive) | GI50 (OVCAR-8): > 10 µM (inactive) | GI50 (OVCAR-3): > 10 µM (inactive) | GI50 (A549): > 10 µM (inactive) | GI50 (HCT-15): > 10 µM | GI50 (DU-145): > 10 µM (inactive) | GI50 (SF-539): > 10 µM (inactive) | GI50 (IGROV-1): > 10 µM (inactive) | GI50 (RXF 393): > 10 µM (inactive) | GI50 (SW-620): > 10 µM (inactive) | GI50 (HCT-116): > 10 µM (inactive) | GI50 (U-251): > 10 µM (inactive) | GI50 (SF-268): > 10 µM (inactive)

Cc1cn(C2CC(O)C(Cn3nncc3Cn3ncc(=O)[nH]c3=O)O2)c(=O)[nH]c1=O (stereo not given)
GI50 (MCF7): > 100 µM (inactive) | GI50 (Hs-578T): > 100 µM (inactive) | GI50 (HCC 2998): > 100 µM (inactive) | GI50 (SK-MEL-2): > 100 µM (inactive) | GI50 (SNB-19): > 100 µM (inactive) | GI50 (MOLT-4): > 100 µM (inactive) | GI50 (UO-31): > 100 µM (inactive) | GI50 (OVCAR-8): > 100 µM (inactive) | GI50 (OVCAR-3): > 100 µM (inactive) | GI50 (A549): > 100 µM (inactive) | GI50 (HCT-15): > 100 µM | GI50 (DU-145): > 100 µM (inactive) | GI50 (HOP-92): > 100 µM (inactive) | GI50 (SF-539): > 100 µM (inactive) | GI50 (IGROV-1): > 100 µM (inactive) | GI50 (RXF 393): > 100 µM (inactive) | GI50 (SW-620): > 100 µM (inactive) | GI50 (HCT-116): > 100 µM (inactive) | GI50 (U-251): > 100 µM (inactive) | GI50 (SF-268): > 100 µM (inactive)

CC[N+]1(C)CCC(O)(c2ccc(Cl)cc2)C(C(=O)c2ccc(Cl)cc2)C1 (stereo not given)
GI50 (MCF7): 1.1 µM (active) | GI50 (Hs-578T): 12.5 µM (inactive) | GI50 (HCC 2998): 19.9 µM (inactive) | GI50 (SNB-19): 17.2 µM (inactive) | GI50 (MOLT-4): 13.7 µM (inactive) | GI50 (UO-31): 20.1 µM (inactive) | GI50 (OVCAR-8): 46.6 µM (inactive) | GI50 (OVCAR-3): 20.5 µM (inactive) | GI50 (HCT-15): 22 µM | GI50 (DU-145): 18.7 µM (inactive) | GI50 (HOP-92): > 10 µM (inactive) | GI50 (IGROV-1): 18.5 µM (inactive) | GI50 (RXF 393): 14.4 µM (inactive) | GI50 (SW-620): 1.82 µM (inactive) | GI50 (HCT-116): 10.3 µM (inactive) | GI50 (U-251): 24.5 µM (inactive) | GI50 (SF-268): 24.5 µM (inactive)

CCCCOC(=O)CN1C(=O)c2ccccc2C1=O
GI50 (HCC 2998): > 100 µM (inactive) | GI50 (SK-MEL-2): > 100 µM (inactive) | GI50 (SNB-19): > 100 µM (inactive) | GI50 (MOLT-4): > 100 µM (inactive) | GI50 (UO-31): > 100 µM (inactive) | GI50 (OVCAR-8): > 100 µM (inactive) | GI50 (OVCAR-3): > 100 µM (inactive) | GI50 (A549): > 100 µM (inactive) | GI50 (HCT-15): > 100 µM | GI50 (HOP-92): > 100 µM (inactive) | GI50 (SF-539): > 100 µM (inactive) | GI50 (IGROV-1): > 100 µM (inactive) | GI50 (RXF 393): > 100 µM (inactive) | GI50 (SW-620): > 100 µM (inactive) | GI50 (HCT-116): > 100 µM (inactive) | GI50 (U-251): > 100 µM (inactive) | GI50 (SF-268): > 100 µM (inactive)

CCC1=NC(C(F)(F)F)(C(F)(F)F)N=C(N2CCOCC2)O1
GI50 (MCF7): > 100 µM (inactive) | GI50 (Hs-578T): > 100 µM (inactive) | GI50 (HCC 2998): > 100 µM (inactive) | GI50 (SK-MEL-2): > 100 µM (inactive) | GI50 (SNB-19): > 100 µM (inactive) | GI50 (MOLT-4): > 100 µM (inactive) | GI50 (UO-31): > 100 µM (inactive) | GI50 (OVCAR-8): > 100 µM (inactive) | GI50 (OVCAR-3): > 100 µM (inactive) | GI50 (A549): > 100 µM (inactive) | GI50 (HCT-15): > 100 µM | GI50 (DU-145): > 100 µM (inactive) | GI50 (HOP-92): > 100 µM (inactive) | GI50 (SF-539): > 100 µM (inactive) | GI50 (IGROV-1): > 100 µM (inactive) | GI50 (RXF 393): > 100 µM (inactive) | GI50 (SW-620): > 100 µM (inactive) | GI50 (HCT-116): > 100 µM (inactive) | GI50 (U-251): > 100 µM (inactive) | GI50 (SF-268): > 100 µM (inactive)

CC1(C)CCc2cc3c(-c4ccccc4)cc(=O)oc3cc2O1
GI50 (SK-MEL-2): > 100 µM (inactive) | GI50 (SNB-19): 87.5 µM (inactive) | GI50 (MOLT-4): > 100 µM (inactive) | GI50 (UO-31): > 100 µM (inactive) | GI50 (OVCAR-8): > 100 µM (inactive) | GI50 (OVCAR-3): > 100 µM (inactive) | GI50 (HCT-15): > 100 µM | GI50 (HOP-92): 21.1 µM (inactive) | GI50 (SF-539): 38.5 µM (inactive) | GI50 (IGROV-1): > 100 µM (inactive) | GI50 (SW-620): > 100 µM (inactive) | GI50 (U-251): > 100 µM (inactive) | GI50 (SF-268): > 100 µM (inactive)

CCOC(=O)c1csc(NC(=O)CN(C)C)n1
GI50 (MCF7): > 100 µM (inactive) | GI50 (Hs-578T): > 100 µM (inactive) | GI50 (HCC 2998): > 100 µM (inactive) | GI50 (SK-MEL-2): > 100 µM (inactive) | GI50 (SNB-19): > 100 µM (inactive) | GI50 (MOLT-4): > 100 µM (inactive) | GI50 (UO-31): > 100 µM (inactive) | GI50 (OVCAR-8): > 100 µM (inactive) | GI50 (OVCAR-3): > 100 µM (inactive) | GI50 (A549): > 100 µM (inactive) | GI50 (HCT-15): > 100 µM | GI50 (DU-145): > 100 µM (inactive) | GI50 (HOP-92): > 100 µM (inactive) | GI50 (SF-539): > 100 µM (inactive) | GI50 (IGROV-1): > 100 µM (inactive) | GI50 (RXF 393): > 100 µM (inactive) | GI50 (SW-620): > 100 µM (inactive) | GI50 (U-251): > 100 µM (inactive) | GI50 (SF-268): > 100 µM (inactive)

O=c1c2ccccc2[nH]c2cc(O)cc(O)c12
GI50 (HCC 2998): 50.2 µM (inactive) | GI50 (SK-MEL-2): 81.7 µM (inactive) | GI50 (SNB-19): > 100 µM (inactive) | GI50 (MOLT-4): 34.2 µM (inactive) | GI50 (UO-31): 21 µM (inactive) | GI50 (OVCAR-8): 30.6 µM (inactive) | GI50 (OVCAR-3): 53.1 µM (inactive) | GI50 (A549): 92.5 µM (inactive) | GI50 (HCT-15): 55.6 µM | GI50 (SF-539): 41.5 µM (inactive) | GI50 (IGROV-1): < 0.01 µM (active) | GI50 (RXF 393): > 100 µM (inactive) | GI50 (HCT-116): 55.6 µM (inactive) | GI50 (U-251): 79.3 µM (inactive) | GI50 (SF-268): 93.8 µM (inactive)
